Results reported in patent US9713332B2, “Glyphosate application for weed control in Brassica” (priority 2013, dated 2017).

How the values were obtained:
[1] = tested on: canola event DP-73496-4 (GAT1); assay: Herbicide efficacy field trials, chlorosis / crop response after late stage glyphosate application; assay type: in vivo
Description: Field trials were split plot designed with glyphosate treatments as the main factor and entries as the subplot. Entries were randomized within the split factor, and the split was randomized within the replicate.
The following treatments with glyphosate were used as detailed below at different growth stages. In these tests, 1X glyphosate treatment was 675 g ae/ha, 2X glyphosate treatment was 1350 g ae/ha, 3X glyphosate treatment was 2025 g ae/ha and 4X glyphosate treatment was 2700 g ae/ha. All treatments were applied using a mechanical sprayer. For example, in Treatment 1 below, “2X cotyledon” describes a treatment of 1350 g ae/ha of glyphosate at the cotyledon growth stage. Various treatments were tested over a two year period and are described below.
(§1) • 1. 2X cotyledon • 2. 2X 3-5 leaf stage • 3. 2X cot+2X 3-5 leaf stage • 4. 2X cot+2X bolting BBCH55 • 5. 4X cotyledon • 6. 4X 3-5 leaf stage Treatments Tested in Year 2: • 1. 1X cotyledon+1X 3-5 leaf stage • 2. 2X cotyledon+2X 3-5 leaf stage • 3. 1X cotyledon+1X green bud BBCH51 • 4. 2X cotyledon+2X green bud BBCH51 • 5. 1X cotyledon+1X 10% flower BBCH61 • 6. 2X cotyledon+2X 10% flower BBCH61
Percent chlorosis was determined. Visual rating of chlorosis on plants was taken during the period indicated (i.e. 3-5 days) after spray application. Yellowing of the apical meristem, newest leaves or older leaves indicated herbicide-induced chlorotic injury. 100%=all tissue is yellow, 0%=no signs of yellowing tissue.
Late stage glyphosate applications are applications of glyphosate at later growth stages than on the glyphosate label. […] In Year 1, the expanded window application of glyphosate was 2X cot+2X bolting BBCH55; a 2X treatment during the cotyledon stage and an additional 2X treatment during the plant growth stage where individual flower buds (main inflorescence) are visible but are still closed. In Year 2, 1X cotyledon, 1X green bud BBCH51; 2X cotyledon, 2X green bud BBCH51; 1X cotyledon, 1X 10% flower BBCH61; and 2X cotyledon, 2X 10% flower BBCH61 expanded window treatments were included.

[2] = tested on: canola event DP-73496-4 (GAT1); assay: Herbicide efficacy field trials, determination of yield; assay type: in vivo
Method: Field trials were split plot designed with glyphosate treatments as the main factor and entries as the subplot. The split-plot design was used since more than one glyphosate treatment in each location was evaluated, where a different treatment to an individual plot was applied. In split-plot, the levels of the main-plot factor (glyphosate treatments) and the sub-plot factors (individual event entries) within the main-plots were randomized.
The following treatments with glyphosate were used as detailed below at different growth stages. In these tests, 1X glyphosate treatment was at 675 g ae/ha, 2X glyphosate treatment was at 1350 g ae/ha, 3X glyphosate treatment was at 2025 g ae/ha and 4X glyphosate treatment was at 2700 g ae/ha as active ingredient of glyphosate. All treatments were applied using a mechanical sprayer. For example, in Treatment 1 below, “2X cotyledon” describes a treatment of 1350 g ae/ha of glyphosate at the cotyledon growth stage. Various treatments were tested over a two year period and are described below.
as §1
To reduce the growth of weeds in the control plots, conventional herbicides or mechanical pulling of weeds were used as needed. There was no glyphosate applied to the control plots and was used as the control/base to which other glyphosate treatments were compared. The control plots may have had one or more weeds present during the growing season. Control is based on conventional herbicides that are registered for use in all canola.
Plots were considered desiccated when 60-70% of the seed had turned from green to black colour. Combining occurred 5-14 days after desiccation depending on the weather conditions. Each plot was harvested individually. Moisture and weight were recorded directly on the combine. Yield was determined for the GAT1 event.
Various locations were used in the test. Trials were evaluated across 10 locations in both Year 1 and Year 2. Locations included several sites in the short, mid, and long season zones across both years.
The event that was tested was canola event DP-73496-4 (GAT1) (PCT International Patent Application No. PCT/US2010/058011, incorporated by reference).
Late stage glyphosate applications are applications of glyphosate at later growth stages than on the glyphosate label. […]

GAT1 and GAT2 events [3] = assay: Herbicide efficacy trials in 9 locations, herbicide-induced necrosis and chlorosis injury; assay type: in vivo, Brassica
Method: (§2) Transgenic events expressing GAT1 and GAT2 genes were tested herein. GAT1, as mentioned herein is the Brassica GAT event DP-073496-4 (PCT International Patent Application No. PCT/US2010/058011, incorporated by reference). GAT2, as mentioned herein is another transgenic Brassica line expressing a GAT variant.
Chlorosis percent injury describes a visual rating of the percentage of the plant with a yellowing of the apical meristem, newest leaves or older leaves, where 100% denotes that all tissue is yellow, and 0% denotes the absence of yellowing tissue in plants treated with herbicide.
GAT2 events were subjected to herbicide efficacy trials along with the GAT1 as diagonal check in 9 different locations. The herbicide efficacy trials consisted of 6 treatments that included: a control with no glyphosate, 2X, 4X or 8X glyphosate administered at the 3-5 leaf stage (1X=675 g ae/ha), a 2X administered during the 3-5 leaf stage and during the green bud stage (+2X Green Bud), and a 2X administered during the 3-5 leaf stage and during 10% bloom (+2X 10% Bloom). Herbicide-induced necrosis and chlorosis injury was recorded at leaf stages 5, 10, 21 and 30 DAT (days after treatment). […] Yield from different treatments was expressed as a percent to the 2X treatment at the 3 to 5 leaf stage. […] The application of 4X glyphosate at the 3-5 leaf stage led to a 6 to 8% decrease in yield compared to the 2X treatment, and at the 8X rate, yield decreased from 10 to 12% in treated events compared to the 2X treatment (FIG. 3).

GAT1 and GAT2 events [4] = assay: Herbicide efficacy trials in 9 locations, yield as percent to the 2X treatment at the 3 to 5 leaf stage; assay type: in vivo, Brassica; details: 2X at the 3-5 leaf stage and 2X during green bud or 10% bloom stage; FIG. 3
Method: as §2
Percentage of yield relative to 2X describes the yield obtained for the GAT events treated with respective glyphosate herbicide treatments compared to the same GAT events subjected to a solution containing 2X glyphosate treatment at the 3 to 5 leaf stage, expressed as a percentage of the 2X treatment at the 3 to 5 leaf stage.
GAT2 events were subjected to herbicide efficacy trials along with the GAT1 as diagonal check in 9 different locations. The herbicide efficacy trials consisted of 6 treatments that included: a control with no glyphosate, 2X, 4X or 8X glyphosate administered at the 3-5 leaf stage (1X=675 g ae/ha), a 2X administered during the 3-5 leaf stage and during the green bud stage (+2X Green Bud), and a 2X administered during the 3-5 leaf stage and during 10% bloom (+2X 10% Bloom). Herbicide-induced necrosis and chlorosis injury was recorded at leaf stages 5, 10, 21 and 30 DAT (days after treatment). […] Yield from different treatments was expressed as a percent to the 2X treatment at the 3 to 5 leaf stage. […]

Compound: O=C(O)CNCP(=O)(O)O [glyphosate]
- chlorosis ([1]; Year 1, 2X Cot and 2X Bolting BBCH55 (2X = 1350 g ae/ha), all three hybrids, one location): 1%
- recovery of transient chlorosis ([1]; Year 1, 2X Cot and 2X Bolting BBCH55, 10 days after glyphosate application): Full recovery
- chlorosis ([1]; Year 1, 2X Cot and 2X Bolting BBCH55, one hybrid background, second location): 3%
- crop response ([1]; Year 1, 2X Cot and 2X Bolting BBCH55, remaining eight locations): no crop response
- crop response ([1]; Year 2, extended window glyphosate treatments, four GAT-expressing canola backgrounds): did not have any crop response
- yield compared to the control treatment ([2]; Year 1, 2X Cot and 2X Bolting BBCH55): not significantly different
- yield compared to the control treatment ([2]; Year 2, late split applications at 2X glyphosate (1350 g ae/ha), BBCH51 and BBCH61): did not result in yield reduction
- yield compared to the control treatment ([2]; Year 2, split applications 1X Cot and 1X BBCH51 (green bud), 1X Cot and 1X BBCH61 (10% flower), four backgrounds, 1X = 675 g ae/ha): did not result in yield reduction
- yield of GAT1 compared to the controls ([2]; at X treatment): did not show a reduction in yield
- chlorotic injury (GAT1 and GAT2 events [3]; both GAT1 and GAT2 events, even at 8X spray rates, and during green bud and 10% bloom, FIG. 2): Negligible
- herbicide-induced necrotic injury (GAT1 and GAT2 events [3]; even at 8X spray rates (1X = 675 g ae/ha), FIG. 1): minimally observed
- herbicide-induced injury (necrosis, chlorosis) beyond 10 DAT (GAT1 and GAT2 events [3]; rated 5, 10, 21 and 30 DAT, 2X, 4X, 8X at 3-5 leaf, 2X+2X green bud, 2X+2X 10% bloom): No injury was observed
- differences in yield compared to the 2X treatment at 3-5 leaf stage (GAT1 and GAT2 events [4]): no appreciable differences in yield
